Series [1] concerns the target T1, DPP-IV (Homo sapiens, UniProt P27487).
T1 construct: an extract of the human colon carcinoma cell line Caco-2 is used as the DPP IV source; endogenous in cells; host or cells: Caco-2 (human colon carcinoma), differentiated to induce DPP-IV expression; Nonidet-P40 solubilised extract
Nature of the series: DPP-IV assay with Caco-2 cell extract as DPP IV source, AFC substrate, fluorescence. Particulars: extract of human colon carcinoma cell line Caco-2; substrate 100 μM; 60 minutes at ambient temperature; read-out: DPP IV inhibition IC50. The series is classed as biochemical. Here is the method: The cell extract was obtained from cells solubilised in a buffer (10 mM Tris HCl, 0.15 M NaCl, 0.04 t.i.u. aprotinin, 0.5% Nonidet-P40, pH 8.0) by centrifugation at 35,000 g for 30 minutes at 4° C. (to remove cell debris).
The DPP-IV assay was carried out as follows:
50 μl of substrate solution (AFC; AFC is amido-4-trifluoromethylcoumarin), final concentration 100 μM, were placed in black microtitre plates. 20 μl of assay buffer (final concentrations 50 mM Tris HCl pH 7.8, 50 mM NaCl, 1% DMSO) was pipetted in. The reaction was started by the addition of 30 μl of solubilised Caco-2 protein (final concentration 0.14 μg of protein per well). The test substances under investigation were typically added prediluted to 20 μl, while the volume of assay buffer was then reduced accordingly. The reaction was carried out at ambient temperature, the incubation period was 60 minutes. […] Dummy values (corresponding to 0% activity) were obtained in mixtures with no Caco-2 protein (volume replaced by assay buffer), control values (corresponding to 100% activity) were obtained in mixtures without any added substance.

Series [2] deals with rats. Nature of the series: Tolerability: behavior of rats after oral administration. In kind it is in vivo. The conditions noted are these: oral administration of 10 mg/kg.

T1 sequence (P27487 whole entry): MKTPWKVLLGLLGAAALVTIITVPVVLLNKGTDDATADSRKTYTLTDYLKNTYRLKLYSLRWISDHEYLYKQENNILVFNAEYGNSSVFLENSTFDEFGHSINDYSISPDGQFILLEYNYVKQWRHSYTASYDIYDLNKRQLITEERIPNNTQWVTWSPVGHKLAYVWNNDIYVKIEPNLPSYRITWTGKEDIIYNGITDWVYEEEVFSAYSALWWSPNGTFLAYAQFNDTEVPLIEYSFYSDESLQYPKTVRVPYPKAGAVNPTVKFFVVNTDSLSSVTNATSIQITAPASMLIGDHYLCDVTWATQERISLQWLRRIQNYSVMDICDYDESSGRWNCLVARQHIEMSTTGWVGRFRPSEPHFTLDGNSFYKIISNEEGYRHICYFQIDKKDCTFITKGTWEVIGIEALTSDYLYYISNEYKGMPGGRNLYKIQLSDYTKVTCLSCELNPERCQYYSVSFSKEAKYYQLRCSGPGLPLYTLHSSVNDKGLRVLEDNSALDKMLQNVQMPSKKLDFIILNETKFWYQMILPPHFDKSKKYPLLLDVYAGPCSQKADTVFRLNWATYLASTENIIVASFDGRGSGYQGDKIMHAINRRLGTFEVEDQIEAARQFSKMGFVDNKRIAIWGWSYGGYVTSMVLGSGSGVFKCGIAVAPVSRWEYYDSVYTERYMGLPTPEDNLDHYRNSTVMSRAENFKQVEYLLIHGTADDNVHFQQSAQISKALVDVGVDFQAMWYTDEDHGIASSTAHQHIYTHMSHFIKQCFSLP

Take `CC#CCn1c(C(=O)NCc2nc3ccccc3c3ccccc23)cnc1N1CCCC(N)C1` (centres unmarked) [1(2), 1-(but-2-ynyl)-2-(3-amino-piperidin-1-yl)-5-(phenanthridin-6-ylmethylaminocarbonyl)-1H-imidazole]: the IC50 (usually the concentration that gives 50% inhibition) in series [1] turned out to be 41 nM.
The same measure, in the same setting: with `CC(C)=CCn1c(C(=O)NCc2cccc3ccccc23)nnc1N1CCCNCC1` [2(2), 3-([1,4]diazepan-1-yl)-4-(3-methyl-but-2-enyl)-5-(naphth-1-ylmethylaminocarbonyl)-4H-[1,2,4]triazole] the figure was 386 nM; with `NC1CCCN(c2nnc(C(=O)NCc3cccc4ccccc34)n2Cc2ccccc2)C1` (centres unmarked) [3(1), 3-(3-amino-piperidin-1-yl)-4-benzyl-5-(naphth-1-ylmethylaminocarbonyl)-4H-[1,2,4]triazole], 101 nM.
`CC#CCn1c(C(=O)NCc2ccc3ncccc3c2)nnc1N1CCCC(N)C1` (centres unmarked) [4(2), 3-(3-amino-piperidin-1-yl)-4-(but-2-ynyl)-5-(quinolin-6-ylmethylaminocarbonyl)-4H-[1,2,4]triazole]: in series [1], the IC50 stood at 36 nM.
Same read-out and setting: with `CC(C)=CCn1c(C(=O)NCc2cccc3ccccc23)nnc1N1CCNCC1` [Example 2, 3-(piperazin-1-yl)-4-(3-methyl-but-2-enyl)-5-(naphth-1-ylmethylaminocarbonyl)-4H-[1,2,4]triazole] the figure was 367 nM.
Still for that read-out and setting: with `CC(C)=CCn1c(C(=O)NCc2cccc3ccccc23)nnc1N1CCCC(N)C1` (centres unmarked) [Example 3, 3-(3-amino-piperidin-1-yl)-4-(3-methyl-but-2-enyl)-5-(naphth-1-ylmethylaminocarbonyl)-4H-[1,2,4]triazole] the figure was 101 nM.
Consider `CC#CCn1c(C(=O)NCc2nc(C)cc3ccccc23)nnc1N1CCCC(N)C1` (centres unmarked) [Example 4(1), 3-(3-amino-piperidin-1-yl)-4-(but-2-ynyl)-5-(3-methyl-isoquinolin-1-ylmethylaminocarbonyl)-4H-[1,2,4]triazole], for which the “changes in the behavior of rats (tolerability)” value in series [2] was “no changes in the behavior of rats could be detected”.
`NC1CCCN(c2nnc(C(=O)NCc3cccc4ccccc34)n2Cc2ccccc2Cl)C1` (centres unmarked) [Example 4, 3-(3-amino-piperidin-1-yl)-4-(2-chloro-benzyl)-5-(naphth-1-ylmethylaminocarbonyl)-4H-[1,2,4]triazole]: the 50% inhibitory concentration (IC50) in series [1] came to 382 nM.
